“Also recorded” adds a separate entry of the source.
What was measured:
TSPO [1] = biological target: T1, TSPO (Rattus norvegicus, UniProt P16257); assay: Micro PET/CT imaging in KA-induced epileptic rats; format: in vivo, SD rats; details: 2 mg/kg i.v. 10 min prior to [18F]F-TFQC, P < 0.05
TSPO [2] = biological target: T1, TSPO; assay: In vitro autoradiography on rat brain slices; format: binding; details: sham rat brain slices; PK11195 14.17 μmol/L, [19F]F-TFQC 12.91 μmol/L; 14.5 nmol/L [18F]F-TFQC; P < 0.001
TSPO [3] = details: read-out: human U87MG Ki; cited from earlier work

T1 sequence (P16257 whole entry): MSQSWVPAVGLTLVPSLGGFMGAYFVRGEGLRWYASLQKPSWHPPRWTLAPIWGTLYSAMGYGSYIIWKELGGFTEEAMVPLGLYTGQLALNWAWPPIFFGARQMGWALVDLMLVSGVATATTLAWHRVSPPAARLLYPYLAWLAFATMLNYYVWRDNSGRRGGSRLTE

| blocking of [18F]F-TFQC radioactivity in the right hippocampus (TSPO [1]) | blocking of [18F]F-TFQC autoradiography signals (TSPO [2]) | SMILES | Ki (TSPO [3]) [nM] |
| --- | --- | --- | --- |
| blocked | disappeared; also recorded: blocked | CC[C@@H](C)N(C)C(=O)c1nc(-c2cccc(C(F)(F)F)c2)c2ccccc2n1 [[^19F]F-TFQC, N-((2R)-but-2-yl)-N-methyl-4-(3-(trifluoromethyl)phenyl)quinazoline-2-carboxamide] | 1.19 |
|  | disappeared; also recorded: blocked | CCC(C)N(C)C(=O)c1cc2ccccc2c(-c2ccccc2Cl)n1 (stereo not shown) [PK11195, reference compound] |  |

From publication PMC11959965 (Acta Pharmaceutica Sinica. B, 2024)
